According to patent publication US6541482B2, “Carbocyclic nucleoside agents useful as selective inhibitors of proinflammatory cytokines” (priority 1993, dated 2003):

Columns and labels:
[1] = system: TNF-α; assay: Inhibition of TNF-α production by LPS-stimulated human monocyte-derived macrophages; assay type: cell-based; details: Macrophage; monocyte-derived macrophages from human peripheral blood, stimulated with LPS, 18 hours of culture; dose response 500 μM-0.1 μM; read-out: IC50 for inhibiting TNF-α levels
Protocol: Monocyte-derived macrophages stimulated with bacterial lipopolysaccharide (LPS) produce high levels of TNF-α (14.87±1.02 ηg/mL) during 18 hours of culture.

[2] = system: lethal effects of LPS; assay: D-galactosamine animal model of septic shock (protection against lethal effects of LPS); assay type: in vivo; details: treated about 1 hour before i.p. challenge of D-galactosamine and LPS, 100 mg/kg i.p. for the azido compound; for protection: mice, vehicle HBSS 0% protection; for mice killed: vehicle HBSS 6 out of 6 killed by 18 hours
Protocol: Mice treated with the vehicle Hanks Balanced Salt Solution (HBSS) approximately 1 hour before intraperitoneal (i.p.) challenge of D-galactosamine and LPS, succumb to disease by 18 hours after challenge (e.g. 6 out of 6 mice killed; 0% protection). […] Positive-control PTX afforded […] protection in this model (3 out of 6 mice killed; 50% protection).

SMILES	IC50 [1] [µM]	protection [2] [%]	mice killed [2]
[N-]=[N+]=NC1CCC(n2cnc3c(N)ncnc32)C1 (stereo not drawn) [1R,3R-trans-1-(9-adenyl)-3-azidocyclopentane]	5.48 ± 1.3	66	2 out of 6
CC(=O)CCCCn1c(=O)c2c(ncn2C)n(C)c1=O [Pentoxifylline]	26.3 ± 16	50	3 out of 6
